How the values were obtained:
[1] = Stability of compounds in whole blood (dog); type: in vitro ADME; conditions: 1 μM compound, 37° C.
Method: (§1) Selected compounds of the present invention (1 μM) were incubated with whole blood (with heparin) from rat, dog and human. The samples were incubated for 0, 0.5, 1 and 2 hours in a 95% humidified incubator at 37° C. with 5% CO2. At each time point, the samples were quenched with acetonitrile containing an appropriate internal standard. The samples were then vortex-mixed and centrifuged at 2,500×g for 20 minutes. The supernatants were transferred to clean plates and analyzed using LC-MS/MS. The stability of the analyte was assessed by determining the percentage of drug loss over the course of time.

[2] = Stability of compounds in whole blood (rat); type: in vitro ADME; conditions: 1 μM compound, 37° C.
Method: as §1

[3] = Stability of compounds in whole blood (human); type: in vitro ADME; conditions: 1 μM compound, 37° C.
Method: as §1

[4] = Dog pharmacokinetic studies, oral administration to fasted Beagle dogs; type: in vivo; conditions: dose equivalent to 10 mg/kg of Compound Int-1
Method: Male Beagle Dogs (Marshall Farms) were used for the pharmacokinetic studies. Studies were conducted under a protocol approved by the WP-IACUC (Animal Procedure Statement #2018-600787-MAR). Following overnight-fasting, dogs were dosed orally with either Compound Int-1 at 10 mg/kg or one of the respective prodrugs at the dose equivalent to 10 mg/kg of Compound Int-1 formulated as a suspension in Orablend® SF. Dosing was followed by 15 mL water rinse via oral gavage. Food was returned at 4 hours after dosing. Blood (0.5-mL) was drawn at pre-dose, 0.25, 0.5, 1, 2, 4, 6, 24, 30, 48, 54 and 72 hours post-dosing into EDTA-coated collection tubes containing 25 μL of 2 mM dichlorvos solution in water. The tubes were kept chilled prior to blood collection and throughout plasma separation. The plasma was separated by centrifugation (2 minutes at 10000 g). After processing, 10 uL of 10% formic acid was added to each 200 uL of plasma. Acidified plasma samples were immediately frozen and kept at −70° C. until analysis by LC-MS/MS.
Mean [±SD] Pharmacokinetic Parameters for Compounds after Oral Administration to Fasted Beagle Dogs at Dose Equivalent to 10 mg/kg of Compound Int-1.

Remaining at 2 hours [1] [%]	Remaining at 2 hours [2] [%]	Remaining at 2 hours [3] [%]	absorption versus metabolite Compound Int-1 [4]	Structure (SMILES)
19	0	24	–	CCOC(=O)Oc1c2n(cc(C(=O)NCc3ccc(F)cc3F)c1=O)C[C@@H]1OCCC[C@]1(C)C2=O [Compound 1]
–	–	–	significant increase in absorption	CC(C)OC(=O)OCOc1c2n(cc(C(=O)NCc3ccc(F)cc3F)c1=O)C[C@@H]1OCCC[C@]1(C)C2=O [Compound 3]
–	–	–	significant increase in absorption	CCOC(=O)OCOc1c2n(cc(C(=O)NCc3ccc(F)cc3F)c1=O)C[C@@H]1OCCC[C@]1(C)C2=O [Compound 4]
